In ChEMBL document CHEMBL4507276 (2021) one finds residual activity, activity and inhibition data, which are given here for two compounds.

Data set [1] deals with Serine/threonine-protein kinase VRK2 (Homo sapiens) (UniProt Q86Y07). Conditions: Compound concentration 1000.0 nM; call rule not given here.
Data set [2] has as its target Prostaglandin G/H synthase 1 (Homo sapiens) (UniProt P23219). The data set can be described thus: COX1_HU Cerep selectivity data (BI). The conditions noted are these: Compound concentration 20.0 uM.
Data set [3] concerns the target Gastrin/cholecystokinin type B receptor (Homo sapiens) (UniProt P32239). Put plainly: CCKB/H Cerep selectivity data (BI). Conditions: Compound concentration 20.0 uM.
Data set [4] concerns the target Fibroblast growth factor receptor 1 (Homo sapiens) (UniProt P11362). The data set can be described thus: FGFR1 Invitrogen selectivity data (BI). The conditions noted are these: Compound concentration 3.0 uM.
The target of data set [5] is Protein kinase C alpha type (Homo sapiens) (UniProt P17252). The data set can be described thus: PRKCA Invitrogen selectivity data (BI). The conditions noted are these: Compound concentration 3.0 uM.
In data set [6] the target is xanthine dehydrogenase/oxidase (Bos taurus, UniProt P80457). Put plainly: SUPOXXANOXID Cerep selectivity data (BI). The arrangement: mode of action inhibitor. The conditions noted are these: cattle, xanthine oxidase enzyme assay; compound concentration 20 uM; read-out: % Ctrl.
Data set [7] deals with T1, Interleukin-1 receptor-associated kinase 4 (Homo sapiens) (UniProt Q9NWZ3).
T1 sequence (whole entry): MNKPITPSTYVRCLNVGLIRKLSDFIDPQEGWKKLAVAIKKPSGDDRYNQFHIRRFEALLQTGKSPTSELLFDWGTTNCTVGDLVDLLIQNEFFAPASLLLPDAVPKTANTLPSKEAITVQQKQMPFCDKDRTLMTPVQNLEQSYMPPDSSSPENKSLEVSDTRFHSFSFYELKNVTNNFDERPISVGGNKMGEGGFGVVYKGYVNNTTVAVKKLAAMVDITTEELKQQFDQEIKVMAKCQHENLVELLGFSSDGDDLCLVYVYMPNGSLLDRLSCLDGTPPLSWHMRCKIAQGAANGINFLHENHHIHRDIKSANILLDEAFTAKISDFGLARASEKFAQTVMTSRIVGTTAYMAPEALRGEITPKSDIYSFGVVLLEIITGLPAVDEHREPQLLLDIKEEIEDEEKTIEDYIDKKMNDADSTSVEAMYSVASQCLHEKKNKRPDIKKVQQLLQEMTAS
Put plainly: IRAK4 Invitrogen selectivity data (BI). Conditions: Compound concentration 3.0 uM.

For data set [8], the target named is Serine/threonine-protein kinase MARK2 (Homo sapiens) (UniProt Q7KZI7). Put plainly: MARK2 Invitrogen selectivity data (BI). The conditions noted are these: Compound concentration 3.0 uM.
Data set [9] has as its target T2, Ephrin type-B receptor 1 (Homo sapiens) (UniProt P54762).
T2 sequence (whole entry): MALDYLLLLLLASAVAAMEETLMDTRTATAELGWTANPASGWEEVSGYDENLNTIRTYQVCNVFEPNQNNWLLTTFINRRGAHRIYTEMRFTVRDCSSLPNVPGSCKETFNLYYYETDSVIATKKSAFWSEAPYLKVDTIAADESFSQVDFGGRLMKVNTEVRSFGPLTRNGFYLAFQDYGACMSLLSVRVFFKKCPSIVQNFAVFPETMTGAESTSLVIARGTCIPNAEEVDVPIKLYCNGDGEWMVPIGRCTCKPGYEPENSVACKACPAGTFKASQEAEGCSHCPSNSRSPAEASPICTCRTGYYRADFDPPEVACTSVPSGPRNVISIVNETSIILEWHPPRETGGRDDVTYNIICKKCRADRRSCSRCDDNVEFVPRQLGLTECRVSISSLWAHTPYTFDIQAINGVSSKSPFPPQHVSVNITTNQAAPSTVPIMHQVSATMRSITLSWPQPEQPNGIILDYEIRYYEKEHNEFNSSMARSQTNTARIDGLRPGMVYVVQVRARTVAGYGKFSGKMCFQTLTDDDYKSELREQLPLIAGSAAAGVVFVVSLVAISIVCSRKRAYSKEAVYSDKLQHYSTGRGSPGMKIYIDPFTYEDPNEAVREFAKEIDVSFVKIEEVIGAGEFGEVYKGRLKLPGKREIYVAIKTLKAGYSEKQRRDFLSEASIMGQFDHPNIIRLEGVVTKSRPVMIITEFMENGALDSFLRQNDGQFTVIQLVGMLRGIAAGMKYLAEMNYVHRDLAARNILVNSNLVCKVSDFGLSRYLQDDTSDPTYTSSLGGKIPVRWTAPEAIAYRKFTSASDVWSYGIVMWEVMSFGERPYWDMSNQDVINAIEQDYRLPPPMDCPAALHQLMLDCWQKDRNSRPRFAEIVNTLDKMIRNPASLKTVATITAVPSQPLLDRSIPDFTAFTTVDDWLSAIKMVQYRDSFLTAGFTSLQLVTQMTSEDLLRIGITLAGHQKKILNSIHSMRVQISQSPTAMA
The data set can be described thus: EPHB1 Invitrogen selectivity data (BI). Conditions: Compound concentration 3.0 uM.

Data set [10] concerns the target Adenosine receptor A2b (Homo sapiens) (UniProt P29275). Put plainly: A2B/H Cerep selectivity data (BI). The conditions noted are these: Compound concentration 20.0 uM.
For data set [11], the target named is Insulin-like growth factor 1 receptor (Homo sapiens) (UniProt P08069). The data set can be described thus: IGF1R Invitrogen selectivity data (BI). Conditions: Compound concentration 3.0 uM.
For data set [12], the target named is Death-associated protein kinase 1 (Homo sapiens) (UniProt P53355). Put plainly: DAPK1 Invitrogen selectivity data (BI). The conditions noted are these: Compound concentration 3.0 uM.
Sequence of Death-associated protein kinase 1 (Homo sapiens) (P53355 whole entry, looked up): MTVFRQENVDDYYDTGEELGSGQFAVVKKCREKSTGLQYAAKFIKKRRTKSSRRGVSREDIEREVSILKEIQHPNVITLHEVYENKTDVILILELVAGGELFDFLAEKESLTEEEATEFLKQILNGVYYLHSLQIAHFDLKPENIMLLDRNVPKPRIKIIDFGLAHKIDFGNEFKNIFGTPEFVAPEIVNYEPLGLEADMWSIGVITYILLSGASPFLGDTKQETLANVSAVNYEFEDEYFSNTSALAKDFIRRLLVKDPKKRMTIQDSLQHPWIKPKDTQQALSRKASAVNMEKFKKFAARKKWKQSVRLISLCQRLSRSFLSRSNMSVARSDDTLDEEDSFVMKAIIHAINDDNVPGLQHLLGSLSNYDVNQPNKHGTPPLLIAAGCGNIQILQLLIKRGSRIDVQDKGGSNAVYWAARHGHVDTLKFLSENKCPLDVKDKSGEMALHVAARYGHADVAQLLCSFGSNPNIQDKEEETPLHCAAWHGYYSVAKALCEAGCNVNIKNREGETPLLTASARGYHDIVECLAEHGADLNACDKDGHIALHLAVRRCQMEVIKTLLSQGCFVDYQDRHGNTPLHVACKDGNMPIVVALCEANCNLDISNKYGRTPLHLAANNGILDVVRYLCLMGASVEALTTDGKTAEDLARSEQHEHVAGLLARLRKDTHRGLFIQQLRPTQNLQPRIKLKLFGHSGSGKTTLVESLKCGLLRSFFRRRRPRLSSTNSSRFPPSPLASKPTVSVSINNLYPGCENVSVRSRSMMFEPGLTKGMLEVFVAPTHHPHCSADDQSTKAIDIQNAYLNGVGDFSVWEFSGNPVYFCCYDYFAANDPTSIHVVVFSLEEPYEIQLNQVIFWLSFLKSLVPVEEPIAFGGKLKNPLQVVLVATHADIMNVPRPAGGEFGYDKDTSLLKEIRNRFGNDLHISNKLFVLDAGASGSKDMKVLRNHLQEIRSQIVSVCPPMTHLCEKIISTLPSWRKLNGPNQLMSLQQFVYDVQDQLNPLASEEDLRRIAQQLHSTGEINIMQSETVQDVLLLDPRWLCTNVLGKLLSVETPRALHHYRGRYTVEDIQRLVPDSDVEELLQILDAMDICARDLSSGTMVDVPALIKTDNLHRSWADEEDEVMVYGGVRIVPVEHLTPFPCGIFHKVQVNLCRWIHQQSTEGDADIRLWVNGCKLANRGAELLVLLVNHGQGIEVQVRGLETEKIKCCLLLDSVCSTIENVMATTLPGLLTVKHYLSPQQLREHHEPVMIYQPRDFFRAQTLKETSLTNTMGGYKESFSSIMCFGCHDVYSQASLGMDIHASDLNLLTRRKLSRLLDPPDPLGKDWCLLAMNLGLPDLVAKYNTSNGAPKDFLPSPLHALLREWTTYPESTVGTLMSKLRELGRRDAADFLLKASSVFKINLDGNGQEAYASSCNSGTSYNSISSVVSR
Data set [13] has as its target Cysteinyl leukotriene receptor 1 (Homo sapiens) (UniProt Q9Y271). The data set can be described thus: CYSLT1_HS Eurofins-Panlabs selectivity data (BI). The conditions noted are these: Compound concentration 10.0 uM.
For data set [14], the target named is Serine/threonine-protein kinase MRCK alpha (Homo sapiens) (UniProt Q5VT25). The data set can be described thus: CDC42 BPA Invitrogen selectivity data (BI). The conditions noted are these: Compound concentration 3.0 uM.
Sequence of Serine/threonine-protein kinase MRCK alpha (Homo sapiens) (Q5VT25 whole entry): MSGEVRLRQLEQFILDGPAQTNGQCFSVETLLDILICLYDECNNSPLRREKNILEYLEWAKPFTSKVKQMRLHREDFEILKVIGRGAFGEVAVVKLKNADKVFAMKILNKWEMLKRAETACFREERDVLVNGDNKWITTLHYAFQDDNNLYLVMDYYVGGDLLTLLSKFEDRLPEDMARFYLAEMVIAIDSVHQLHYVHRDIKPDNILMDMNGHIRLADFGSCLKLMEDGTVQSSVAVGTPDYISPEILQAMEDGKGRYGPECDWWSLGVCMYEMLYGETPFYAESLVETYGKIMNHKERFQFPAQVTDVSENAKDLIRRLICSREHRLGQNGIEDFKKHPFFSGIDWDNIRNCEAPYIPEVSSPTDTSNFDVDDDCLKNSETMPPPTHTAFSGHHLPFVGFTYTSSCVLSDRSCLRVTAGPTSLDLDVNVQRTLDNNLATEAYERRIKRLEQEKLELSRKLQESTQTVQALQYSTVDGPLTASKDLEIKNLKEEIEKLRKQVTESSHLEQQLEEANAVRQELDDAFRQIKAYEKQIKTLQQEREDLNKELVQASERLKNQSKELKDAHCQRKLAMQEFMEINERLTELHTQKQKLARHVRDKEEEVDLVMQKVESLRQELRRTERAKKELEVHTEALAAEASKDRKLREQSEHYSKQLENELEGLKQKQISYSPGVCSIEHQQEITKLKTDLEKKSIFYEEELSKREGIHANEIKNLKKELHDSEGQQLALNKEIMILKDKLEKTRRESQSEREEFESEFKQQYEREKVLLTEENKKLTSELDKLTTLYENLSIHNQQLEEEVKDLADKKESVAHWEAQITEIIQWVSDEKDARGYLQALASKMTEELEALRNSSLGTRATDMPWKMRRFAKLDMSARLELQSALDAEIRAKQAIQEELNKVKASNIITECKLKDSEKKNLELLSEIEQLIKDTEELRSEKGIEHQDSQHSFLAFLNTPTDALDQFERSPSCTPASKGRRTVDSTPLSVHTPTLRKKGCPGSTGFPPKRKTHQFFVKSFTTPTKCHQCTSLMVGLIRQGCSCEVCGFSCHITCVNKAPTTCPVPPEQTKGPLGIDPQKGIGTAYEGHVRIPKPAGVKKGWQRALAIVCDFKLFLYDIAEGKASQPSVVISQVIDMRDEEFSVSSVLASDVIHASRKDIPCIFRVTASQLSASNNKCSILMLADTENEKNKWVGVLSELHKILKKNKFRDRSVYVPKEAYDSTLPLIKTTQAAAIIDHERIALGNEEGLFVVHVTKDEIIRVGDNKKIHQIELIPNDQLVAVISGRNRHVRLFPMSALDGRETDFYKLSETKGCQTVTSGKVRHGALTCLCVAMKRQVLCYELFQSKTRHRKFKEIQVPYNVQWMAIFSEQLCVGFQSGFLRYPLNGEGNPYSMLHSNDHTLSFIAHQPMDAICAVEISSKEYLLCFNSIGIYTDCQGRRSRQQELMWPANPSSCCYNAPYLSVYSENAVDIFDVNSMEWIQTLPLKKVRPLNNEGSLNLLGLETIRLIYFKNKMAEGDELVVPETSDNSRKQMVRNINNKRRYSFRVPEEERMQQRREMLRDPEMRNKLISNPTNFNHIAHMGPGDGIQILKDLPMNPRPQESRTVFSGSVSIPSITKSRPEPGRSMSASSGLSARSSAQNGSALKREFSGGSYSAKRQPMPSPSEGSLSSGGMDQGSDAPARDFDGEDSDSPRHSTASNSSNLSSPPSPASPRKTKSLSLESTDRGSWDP
Data set [15] has as its target Muscarinic acetylcholine receptor M3 (Homo sapiens) (UniProt P20309). The conditions noted are these: Compound concentration 10.0 uM.
In data set [16] the target is Serine/threonine-protein kinase N1 (Homo sapiens) (UniProt Q16512). Put plainly: PKN1 Invitrogen selectivity data (BI). The conditions noted are these: Compound concentration 3.0 uM.
In data set [17] the target is Homeodomain-interacting protein kinase 3 (Homo sapiens) (UniProt Q9H422). The data set can be described thus: HIPK3 Invitrogen selectivity data (BI). Conditions: Compound concentration 3.0 uM.
The target in data set [18] is 5-hydroxytryptamine receptor 7 (Homo sapiens) (UniProt P34969). The data set can be described thus: 5HT7/H Cerep selectivity data (BI). Conditions: Compound concentration 20.0 uM.
Data set [19] concerns the target Sodium channel regulatory subunit beta-1 (Rattus norvegicus) (UniProt Q00954). The data set can be described thus: NA+/SITE2/R Cerep selectivity data (BI). The conditions noted are these: Compound concentration 20.0 uM.
For data set [20], the target named is Oxysterols receptor LXR-beta (Homo sapiens) (UniProt P55055). The data set can be described thus: LXR_BETAH_AGON Cerep selectivity data (BI). The conditions noted are these: filed as agonist, Compound concentration 20.0 uM.
Data set [21] concerns the target Receptor tyrosine-protein kinase erbB-2 (Homo sapiens) (UniProt P04626). Put plainly: ERBB2 Invitrogen selectivity data (BI). The conditions noted are these: Compound concentration 3.0 uM.
For data set [22], the target named is T3, Aurora kinase C (Homo sapiens) (UniProt Q9UQB9).
T3 sequence (whole entry): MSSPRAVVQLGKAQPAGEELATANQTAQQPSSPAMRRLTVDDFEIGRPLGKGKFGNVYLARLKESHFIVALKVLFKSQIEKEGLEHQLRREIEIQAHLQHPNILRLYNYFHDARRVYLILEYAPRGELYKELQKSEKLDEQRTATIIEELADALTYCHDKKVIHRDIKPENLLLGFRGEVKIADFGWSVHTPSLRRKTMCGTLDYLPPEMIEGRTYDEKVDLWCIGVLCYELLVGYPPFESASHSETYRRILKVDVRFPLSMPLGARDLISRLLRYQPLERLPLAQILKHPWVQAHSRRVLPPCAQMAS
The data set can be described thus: AURKC Invitrogen selectivity data (BI). The conditions noted are these: Compound concentration 3.0 uM.

Sequence of Serine/threonine-protein kinase VRK2 (Homo sapiens) (Q86Y07 whole entry): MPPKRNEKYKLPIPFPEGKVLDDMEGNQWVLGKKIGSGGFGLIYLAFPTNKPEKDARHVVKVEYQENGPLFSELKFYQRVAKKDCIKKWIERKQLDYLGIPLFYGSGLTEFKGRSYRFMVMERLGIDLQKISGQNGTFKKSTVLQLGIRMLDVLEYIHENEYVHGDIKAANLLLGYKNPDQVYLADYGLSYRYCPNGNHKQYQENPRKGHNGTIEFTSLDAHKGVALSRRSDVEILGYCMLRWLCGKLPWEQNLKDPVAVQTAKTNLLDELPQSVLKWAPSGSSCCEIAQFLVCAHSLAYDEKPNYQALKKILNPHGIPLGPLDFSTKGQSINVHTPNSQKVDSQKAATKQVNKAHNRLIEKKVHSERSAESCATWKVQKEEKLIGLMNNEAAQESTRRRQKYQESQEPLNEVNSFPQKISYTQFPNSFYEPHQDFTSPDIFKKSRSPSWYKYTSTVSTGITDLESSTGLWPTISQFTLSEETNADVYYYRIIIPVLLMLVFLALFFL
Sequence of Sodium channel regulatory subunit beta-1 (Rattus norvegicus) (Q00954 whole entry): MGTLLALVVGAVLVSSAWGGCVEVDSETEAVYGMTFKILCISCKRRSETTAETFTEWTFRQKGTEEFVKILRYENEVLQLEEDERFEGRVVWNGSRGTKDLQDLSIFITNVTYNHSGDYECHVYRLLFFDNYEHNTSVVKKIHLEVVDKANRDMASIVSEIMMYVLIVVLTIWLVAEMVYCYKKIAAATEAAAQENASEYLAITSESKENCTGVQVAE
Sequence of Cysteinyl leukotriene receptor 1 (Homo sapiens) (Q9Y271 whole entry): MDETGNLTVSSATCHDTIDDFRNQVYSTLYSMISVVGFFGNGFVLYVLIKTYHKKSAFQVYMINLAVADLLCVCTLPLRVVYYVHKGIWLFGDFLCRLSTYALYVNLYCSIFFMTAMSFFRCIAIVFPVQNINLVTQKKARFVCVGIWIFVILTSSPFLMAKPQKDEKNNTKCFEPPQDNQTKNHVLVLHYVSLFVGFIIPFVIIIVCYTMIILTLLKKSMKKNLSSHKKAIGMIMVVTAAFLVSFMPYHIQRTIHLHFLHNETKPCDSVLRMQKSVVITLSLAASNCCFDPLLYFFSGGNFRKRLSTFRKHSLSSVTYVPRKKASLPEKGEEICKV
Sequence of Muscarinic acetylcholine receptor M3 (Homo sapiens) (P20309 whole entry, looked up): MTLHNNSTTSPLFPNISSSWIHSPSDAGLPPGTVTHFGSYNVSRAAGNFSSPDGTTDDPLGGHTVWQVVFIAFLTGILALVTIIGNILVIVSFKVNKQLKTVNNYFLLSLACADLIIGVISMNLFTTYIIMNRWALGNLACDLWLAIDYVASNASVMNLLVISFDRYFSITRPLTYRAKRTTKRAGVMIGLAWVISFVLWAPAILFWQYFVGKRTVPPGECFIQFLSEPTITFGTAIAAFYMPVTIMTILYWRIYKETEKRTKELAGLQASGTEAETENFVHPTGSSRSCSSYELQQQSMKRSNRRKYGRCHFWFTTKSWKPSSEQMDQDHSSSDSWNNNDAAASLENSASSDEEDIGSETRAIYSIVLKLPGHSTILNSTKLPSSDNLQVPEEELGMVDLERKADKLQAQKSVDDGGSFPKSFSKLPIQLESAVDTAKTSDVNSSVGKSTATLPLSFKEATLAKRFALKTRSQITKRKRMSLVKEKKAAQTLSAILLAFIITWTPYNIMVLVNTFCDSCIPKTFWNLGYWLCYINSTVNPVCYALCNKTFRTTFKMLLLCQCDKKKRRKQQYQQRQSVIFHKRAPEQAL

Regarding `CN(C)C(=O)Cn1cc(-c2nc(C3(c4ccc(-c5cnc(N)nc5)cc4)CC3)no2)cn1` [BI 0153], the residual activity in data set [1] is 90%.

Usually inhibition stands for the percentage by which the read-out fell short of the control. With `CN(C)C(=O)Cn1cc(-c2nc([C@@](C)(c3ccc(-c4cnc(N)nc4)cc3)C3CC3)no2)cn1` [BI 665915], the residual activity in data set [2] is 62%; in data set [3], 119%; in data set [4] it was 100%; in data set [5], 102%; in data set [7], 102%; in data set [8], 98.5%. Further, the residual activity in data set [9] was 93%; in [10], 83%; in [11], 99.5%; in data set [12], 99.5%; in data set [13], 100%; in data set [14], 102%. For the same compound, the residual activity in [16] was 98.5%; in data set [17], 99%; in [18] it was 104%; in data set [19], 107%; in data set [20], 118%; in [21], 108%. For the same compound, the residual activity in data set [22] is 93%. Besides, the activity at 20 µM in data set [6] is recorded as 85% (not active). The inhibition in [15] is 7.43%.
